Measured values taken from the supplement of paper PMC11061612.

Experiments:
[1] = test system: B-CPAP (Thyroid Gland Carcinoma); assay: Bliss excess, mean over the matrix (fraction); higher = more synergy
Outline: (§1)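 After 24 hours at 37°C and 5% CO2 in 1536-well plates, cells in DMEM/F12 or RPMI plus 10% FBS received two-drug dose matrices for 72 hours. Viability came from CellTiter-Glo 2.0 luminescence and was scaled as inhibition, anchored at 0 by vehicle wells and at 1 by blank wells. Combination Emax is taken as the second-highest inhibition in the matrix, and Bliss excess as the observed combination effect less EA + EB − EA·EB, with EA and EB the single-agent effects.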

[2] = test system: HCC1806 (Breast Carcinoma); assay: as above
Outline: as §1

[3] = test system: MFE-296 (Endometrial Carcinoma); assay: as above
Outline: as §1

[4] = test system: OVCA420 (Ovarian Carcinoma); assay: as above
Outline: as §1

[5] = test system: SNU-5 (Gastric Carcinoma); assay: as above
Outline: as §1

[6] = test system: B-CPAP (Thyroid Gland Carcinoma); assay: combination Emax (second highest fraction inhibited in the dose matrix, 72 h); higher = more inhibition; extreme values may be limits of the assay
Outline: as §1

[7] = test system: CCRF-CEM (T-Lymphoblastic Leukemia); assay: as above
Outline: as §1

[8] = test system: CaR-1 (Colorectal Carcinoma); assay: as above
Outline: as §1

[9] = test system: DoTc2-4510 (Cervical Carcinoma); assay: as above
Outline: as §1

[10] = test system: HCC1806 (Breast Carcinoma); assay: as above
Outline: as §1

HOS (Osteosarcoma) = assay: as above
Outline: as §1

KELLY (Neuroblastoma) = assay: as above
Outline: as §1

[11] = test system: LB831-BLC (Bladder Carcinoma); assay: as above
Outline: as §1

[12] = test system: MFE-296 (Endometrial Carcinoma); assay: as above
Outline: as §1

[13] = test system: OVCA420 (Ovarian Carcinoma); assay: as above
Outline: as §1

[14] = test system: RO82-W-1 (Thyroid Gland Carcinoma); assay: as above
Outline: as §1

[15] = test system: SNU-5 (Gastric Carcinoma); assay: as above
Outline: as §1

[16] = test system: TE-9 (Esophageal Squamous Cell Carcinoma); assay: as above
Outline: as §1
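Wherever Bliss excess, mean over the matrix is given: after 72 h of two-drug dosing.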

SMILES | Bliss excess [1] | Bliss excess [2] | Bliss excess [3] | Bliss excess [4] | Bliss excess [5] | combination Emax [6] | combination Emax [7] | combination Emax [8] | combination Emax [9] | combination Emax [10] | combination Emax (HOS (Osteosarcoma)) | combination Emax (KELLY (Neuroblastoma)) | combination Emax [11] | combination Emax [12] | combination Emax [13] | combination Emax [14] | combination Emax [15] | combination Emax [16]
CS(=O)(=O)CCNCc1ccc(-c2ccc3ncnc(Nc4ccc(OCc5cccc(F)c5)c(Cl)c4)c3c2)o1 [Lapatinib] + NC1(c2ccc(-c3nc4ccn5c(=O)[nH]nc5c4cc3-c3ccccc3)cc2)CCC1 [MK-2206] (first compound max 10 µM, 7x7, partner max 10 µM) | 0.0102 | 0.0574 | -0.026 | 0.0085 | 0.0404 | 0.909 | 0.892 | 0.779 | 0.888 | 0.954 | 0.561 | 0.959 | 0.39 | 0.296 | 0.884 | 0.24 | 0.387 | 0.306
N#Cc1cnc(Nc2cc(NC[C@H]3CNCCO3)c(C(F)(F)F)cn2)cn1 [SRA737] + CCc1c2c(nc3ccc(O)cc13)-c1cc3c(c(=O)n1C2)COC(=O)[C@]3(O)CC [SN-38] (first compound max 10 µM, 7x7, partner max 0.3 µM) | – | – | – | – | – | – | 1 | 0.791 | 0.936 | – | 0.849 | 1 | 0.904 | – | – | 0.214 | – | 0.589
N#Cc1cnc(Nc2cc(NC[C@H]3CNCCO3)c(C(F)(F)F)cn2)cn1 [SRA737] + Nc1ccn([C@@H]2O[C@H](CO)[C@@H](O)C2(F)F)c(=O)n1 [Gemcitabine] (first compound max 10 µM, 7x7, partner max 0.3 µM) | – | – | – | – | – | – | 1 | 0.67 | 0.803 | – | 0.752 | 1 | 0.911 | – | – | 0.212 | – | 0.52
N#Cc1cnc(Nc2cc(NC[C@H]3CNCCO3)c(C(F)(F)F)cn2)cn1 [SRA737] + O=c1[nH]cc(F)c(=O)[nH]1 [5-Fluorouracil] (first compound max 10 µM, 7x7, partner max 20 µM) | – | – | – | – | – | – | 0.99 | 0.229 | 0.231 | – | 0.435 | 1 | 0.34 | – | – | 0.144 | – | 0.469
Cc1nc(-c2cn3c(n2)-c2ccc(-c4cnn(C(C)(C)C(N)=O)c4)cc2OCC3)n(C(C)C)n1 [Taselisib] + O=C(Nc1ccc2[nH]nc(-c3ccncc3)c2c1)[C@@H]1CCN(CC(=O)N2CCN(c3ccc(-c4ncccn4)cc3)CC2)C1 [SCH772984] (first compound max 10 µM, 7x7, partner max 5 µM) | – | – | – | – | – | – | 0.611 | 0.872 | 0.691 | – | 0.564 | 0.635 | 0.641 | – | – | 0.193 | – | 0.691
CC1(C)CCC(CN2CCN(c3ccc(C(=O)NS(=O)(=O)c4ccc(NCC5CCOCC5)c([N+](=O)[O-])c4)c(Oc4cnc5[nH]ccc5c4)c3)CC2)=C(c2ccc(Cl)cc2)C1 [Venetoclax] + CS(=O)(=O)CCNCc1ccc(-c2ccc3ncnc(Nc4ccc(OCc5cccc(F)c5)c(Cl)c4)c3c2)o1 [Lapatinib] (first compound max 1 µM, 7x7, partner max 10 µM) | – | – | – | – | – | – | 0.501 | 0.308 | 0.522 | – | 0.13 | 0.947 | 0.202 | – | – | 0.144 | – | 0.189
